Here are results for 83 compounds from PubChem BioAssay AID1959 (Broad Institute, 2009).

Calls of active or inactive are those of the source.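 The calls were made as follows: active = growth-inhibition EC50 no more than tenfold above the top tested dose; inconclusive = flat fit between 30% and 70% inhibition, or unreliable fit; inactive = EC50 more than tenfold above the top tested dose.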

One may read the EC50 as the concentration at which the effect is half-maximal.

This experiment concerns E. coli NEB5alpha growth, BacTiter-Glo luminescence, 4 h. The experiment in a line: Escherichia coli growth inhibition, dose response, counter-screen for MEX-5/POS-1 RNA-binding inhibitor project, luminescence, NEB5alpha (AID 1959).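 Also: pUC19-transformed ampicillin-resistant cells grown in LB with ampicillin.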
As to `CC1(O)C(=O)C=C2C=C(C3CC3)OC=C2C1=O` (stereo not drawn), the EC50 is > 11 µM (inactive).
The value for `Cc1ccc(N/C=C/C(=O)c2sc(-c3ccccc3)nc2C)cc1` was > 11 µM (inactive); that for `Cc1ccc(NC(=O)CN2C(=O)S/C(=C\c3cccn3-c3cccc(C(=O)O)c3)C2=O)c(C)c1` was > 11 µM (inactive); that for `CCOC(=O)/C=c1\s/c(=C\c2ccc3cc(OC)ccc3c2)c(=O)n1CC(=O)NCC1CCCO1` (stereo not drawn) was > 11 µM (inactive).
Turning to `COC(=O)CCC(=O)OC1(C)C(=O)C2=CN(CCc3ccccn3)C(c3ccc(OC)cc3)=CC2=C(Br)C1=O` (stereo not drawn), the EC50 was > 11 µM (inactive).
Take `CCC(C)n1c(=N)c(C#N)cc2c(=O)n3cccc(C)c3nc21` (stereo not drawn): the EC50 was > 11 µM (inactive).
Consider `Cc1cc(/C=C2/C(=O)NC(=O)N(Cc3ccco3)C2=O)c(C)n1-c1ccc(C(=O)O)cc1`, for which the EC50 is > 11 µM (inactive).
Consider `Cn1c(=O)c(-c2cc(=O)[nH][nH]2)c(O)c2ccccc21`, for which the EC50 was > 11 µM (inactive).
On to `Cn1c(=O)[nH]c(=O)c2c1nc(N/N=C/C(Br)=C/c1ccccc1)n2CCO`, for which the EC50 is > 11 µM (inactive).
The value for `COc1ccc(C2C(C(C)=O)=C(C)N=c3s/c(=C\c4cc(C)n(C)c4C)c(=O)n32)c(OC)c1` (stereo not drawn) was > 11 µM (inactive); that for `O=S(=O)(NNC(=S)Nc1ccc(S(=O)(=O)Nc2ncccn2)cc1)c1ccc(Br)cc1` was > 11 µM (inactive).
With `COC(=O)CNc1cccc(C(F)(F)F)c1`, the EC50 was > 11 µM (inactive).
As to `COC/C=C/C1=CC2=CC(=O)C(C)(OC(=O)c3cccs3)C(=O)C2=CO1` (stereo not drawn), the EC50 is > 11 µM (inactive).
As for `Cc1nc2ccccc2c2oc(C(=O)Nc3ccc4c(c3)OCCO4)cc12`, the figure is > 11 µM (inactive); as for `Cc1ccc(S(=O)(=O)N2CCOCC2)cc1NC(=O)CN(C)C1CCS(=O)(=O)C1` (stereo not drawn), > 11 µM (inactive).
The value for `CCCCC1=CC2=CC(=O)C(C)(OC(=O)c3cnc4ccccc4n3)C(=O)C2=CO1` (stereo not drawn) was > 11 µM (inactive); that for `COc1ccc(OC)c(C2C(C(=O)c3ccco3)=C(O)C(=O)N2CCN2CCOCC2)c1` (stereo not drawn) was > 11 µM (inactive); that for `O=C(O)c1ccccc1N/N=C/c1c(Sc2nnnn2-c2ccccc2)nc2ccccn2c1=O` was > 11 µM (inactive).
For the compound `COc1ccccc1N1C(=O)NC(=O)/C(=C/c2ccc([N+](=O)[O-])s2)C1=O`, the EC50 is > 11 µM (inactive).
Take `O=C(NCc1ccccc1)C1Nc2ccc(OC(F)(F)F)cc2C2C=CCC12` (stereo not drawn): the EC50 is > 11 µM (inactive).
For the compound `O=C(O)CCCN1C(=O)/C(=C/c2ccc(-c3nc4ccccc4s3)o2)SC1=S`, the EC50 is > 11 µM (inactive).
Consider `CSc1nnc(N2C(=O)C(O)=C(C(=O)c3ccco3)C2c2cccc(Cl)c2)s1` (stereo not drawn), for which the EC50 is > 11 µM (inactive).
The value for `O=C(NCCO)c1ccc2nc(-c3ccco3)c(-c3ccco3)nc2c1` was > 11 µM (inactive).
Consider `CC(C)(C)C(=O)c1sc2nc(-c3cccs3)cc(C(F)(F)F)c2c1N`, for which the EC50 is > 11 µM (inactive).
As for `NC(=O)c1cccc(N=Cc2cc(Cl)cc(Cl)c2O)c1`, the figure is > 11 µM (inactive).
Take `CC1=N/C(=C/c2ccco2)C(=O)O1`: the EC50 is > 11 µM (inactive).
With `Cc1cc(/C=C(\C#N)C(=O)Nc2ccccc2)c(C)n1-c1ccc(C(=O)O)cc1`, the EC50 is > 11 µM (inactive).
Regarding `Cn1ncc(Cl)c1C(=O)N/N=C/c1cccc(OC2CSC2)c1`, the EC50 was > 11 µM (inactive).
Regarding `Cc1ccc(C)n1-c1ccc(C(=O)O)cc1`, the EC50 is > 11 µM (inactive).
On to `Nc1nnc(C(=O)c2ccccc2N)s1`, for which the EC50 was > 11 µM (inactive).
For `COC(=O)c1[nH]c2cc(OC)c(OC)cc2c1/C=N/Nc1ccccc1`, the EC50 was > 11 µM (inactive).
For `O=C(OCCc1ccccc1)c1cc(O)c(O)c(O)c1`, the EC50 was > 11 µM (inactive).
As for `O=C1CCC/C1=c1\s/c(=C\c2cccnc2)c(=O)n1-c1ccccc1`, the figure is > 11 µM (inactive).
On to `CC1OC(Oc2c(-c3cc(O)c(O)c(O)c3)oc3cc(O)cc(O)c3c2=O)C(O)C(O)C1O` (stereo not drawn), for which the EC50 was > 11 µM (inactive).
Consider `CCOc1ccc(S(=O)(=O)Nc2cc(Sc3ncn[nH]3)c3oc(=O)sc3c2)cc1`, for which the EC50 is > 11 µM (inactive).
Regarding `Cc1ccccc1-c1ccc(/C=C2/SC(N3CCOCC3)=NC2=O)o1`, the EC50 is > 11 µM (inactive).
As to `C=CCn1c(=O)/c(=C/c2ccc(C)o2)s/c1=C(/C#N)C(=O)c1ccccc1`, the EC50 was > 11 µM (inactive).
`O=CN/N=C/c1c(O)ccc2ccccc12`: the EC50 was > 11 µM (inactive).
The value for `C[C@H]1c2cccc(O)c2C(O)=C2C(=O)[C@]3(O)C(O)=C(C(N)=O)C(=O)[C@@H](N(C)C)[C@@H]3[C@@H](O)[C@@H]21` was 4.67 µM.
As for `Cc1ccc(NC(=O)CN2C(=O)S/C(=C\c3cc(C)n(-c4cccc(C(=O)O)c4)c3C)C2=O)cc1`, the EC50 is > 11 µM (inactive).
Turning to `CCN(CC)C(=O)Cn1cc(/C=C2\C(=O)NC(=O)N(c3ccccc3F)C2=O)c2ccccc21`, the EC50 is > 11 µM (inactive).
On to `COc1ccc(NC(=O)c2sc3nc(-c4cccnc4)ccc3c2N)cc1`, for which the EC50 is > 11 µM (inactive).
Consider `Cc1cc(C=C2C(=O)c3ccccc3C2=O)c(C)n1-c1ccc(C(=O)O)cc1`, for which the EC50 is > 11 µM (inactive).
As for `CC(=O)C1=C(c2ccccc2)NC(=O)NC1c1ccc(O)c(O)c1` (stereo not drawn), the figure is > 11 µM (inactive).
For `Cc1nc(N=Nc2ccc(O)cc2)n[nH]1`, the EC50 is > 11 µM (inactive).
In the case of `Cc1cc(C)nc(NN2C(=O)C=CC2=O)n1`, the EC50 was > 11 µM (inactive).
In the case of `CCOc1ccc(C2OC34CCCCC3C(C#N)(C#N)C2(C#N)C(=N)O4)cc1OC` (stereo not drawn), the EC50 is > 11 µM (inactive).
Take `CC(C)(C)OC(=O)NCCCCC1=CC2=CC(=O)C(C)(OC(=O)c3cnc4ccccc4n3)C(=O)C2=CO1` (stereo not drawn): the EC50 is > 11 µM (inactive).
Take `CCc1ccc(N2C(=O)NC(=O)/C(=C\c3cc(C)n(-c4cc(C(=O)O)cc(C(=O)O)c4)c3C)C2=O)cc1`: the EC50 was > 11 µM (inactive).
Regarding `Cn1cc(/C=C2\C(=O)NC(=O)N(c3ccccc3)C2=O)c2ccccc21`, the EC50 was > 11 µM (inactive).
As to `CCCn1c(O)c(CN2CCCC(C)C2)c(C)c(C#N)c1=O` (stereo not drawn), the EC50 was > 11 µM (inactive).
As to `Cc1cc(C(=O)N/N=C/c2cc(Cl)cc([N+](=O)[O-])c2O)n[nH]1`, the EC50 is > 11 µM (inactive).
For the compound `Cc1cccn2c(=O)c3cc(C(=O)NCC4CCCO4)c(=N)n(CCc4ccccc4)c3nc12` (stereo not drawn), the EC50 is > 11 µM (inactive).
As for `COc1ccc(C2C(C#N)=C(N)OC3=C2C(=O)CCC3)cc1Cn1nc(C)c([N+](=O)[O-])c1C` (stereo not drawn), the figure is > 11 µM (inactive); as for `Nc1c(NCCC2=CCCCC2)c(=O)[nH]c(=O)n1Cc1ccccc1`, > 11 µM (inactive).
As for `O=C(NNC(=O)c1cnccn1)c1cccc([N+](=O)[O-])c1`, the figure is > 11 µM (inactive).
The value for `COc1ccc(Nc2nc3ccccc3nc2NS(=O)(=O)c2cccs2)c(OC)c1` was > 11 µM (inactive).
For the compound `COc1ccc(C(=O)c2sc3nc(C)cc(-c4cccs4)c3c2N)cc1`, the EC50 is > 11 µM (inactive).
For the compound `COc1c(O)cc2oc(-c3ccc(O)c(O)c3)cc(=O)c2c1O`, the EC50 is > 11 µM (inactive).
Turning to `Nc1nonc1C(=O)NCCN=Cc1cc(Cc2ccccc2)cc(Br)c1O`, the EC50 is > 11 µM (inactive).
For `O=c1oc2ccc3ccccc3c2cc1-c1nc2ccccc2o1`, the EC50 is > 11 µM (inactive).
Consider `CCCCC1=CC2=CC(=O)C(C)(O)C(=O)C2=CO1` (stereo not drawn), for which the EC50 was > 11 µM (inactive).
The value for `Cc1ccc(/C=C2/Sc3ccc(C(=O)N4CCN(c5ccccn5)CC4)cc3NC2=O)cc1` was > 11 µM (inactive); that for `COc1cccc(C(=O)NCC2CCN(c3ccc(S(=O)(=O)N4CCOCC4)cc3)CC2)c1` was > 11 µM (inactive); that for `N#Cc1cc(NC2CCCC2)c([N+](=O)[O-])cc1C#N` was > 11 µM (inactive).
As to `Cc1ccc(NC(=O)CSc2nnc(N)s2)cc1S(=O)(=O)N1CCOCC1`, the EC50 is > 11 µM (inactive).
For the compound `O=C/C(=C\Nc1ccccn1)c1nc2ccccc2o1`, the EC50 is > 11 µM (inactive).
The value for `CCc1ccc(NC(=O)/C(C#N)=C/c2cc3ccc(C)cc3nc2N2CCOCC2)cc1` was > 11 µM (inactive).
The value for `O=C/C(=C\Nc1ccccn1)c1nc2cc(Cl)ccc2o1` was > 11 µM (inactive); that for `Cc1ccccc1C1=N/C(=C/c2cccs2)C(=O)O1` was > 11 µM (inactive).
For `O=[N+]([O-])c1ccccc1S(=O)(=O)n1nnc2ccccc21`, the EC50 was > 11 µM (inactive).
In the case of `O=C(CCSc1nc2ccccc2s1)N/N=C/c1c(O)ccc2ccccc12`, the EC50 is > 11 µM (inactive).
In the case of `CC1=NN(C(N)=S)C(=O)C1N=Nc1ccc(S(N)(=O)=O)cc1` (stereo not drawn), the EC50 is > 11 µM (inactive).
For the compound `Cc1ccc(S(=O)(=O)NNC(=S)NC(=O)c2ccc([N+](=O)[O-])cc2)cc1`, the EC50 was > 11 µM (inactive).
The value for `COc1c(O)cccc1[C@@H](O)C1CCN(CCc2ccc(F)cc2)CC1` was > 11 µM (inactive).
For the compound `Oc1c(Cl)cc(Cl)c(Cl)c1Cc1c(O)c(Cl)cc(Cl)c1Cl`, the EC50 was > 11 µM (inactive).
In the case of `COc1ccc(C(=O)NC2(C(F)(F)F)C(=O)N(Cc3ccco3)C3=C2C(=O)CC(C)(C)C3)cc1OC` (stereo not drawn), the EC50 was > 11 µM (inactive).
For `N#Cc1ccccc1CN1C(=O)S/C(=C/c2cccn2-c2cccc(C(=O)O)c2)C1=O`, the EC50 was > 11 µM (inactive).
The value for `Cc1ccc2nc3sc(C(=O)N4CCCc5ccccc54)c(N)c3cc2c1` was > 11 µM (inactive); that for `O=C(N/N=C/c1c(O)n(CCc2ccccc2)c(=O)[nH]c1=O)c1ccncc1` was > 11 µM (inactive).
Take `N=C1c2ccccc2CN1NC(=O)CC12CC3CC(CC(C3)C1)C2`: the EC50 was > 11 µM (inactive).
As for `O=[N+]([O-])c1ccc(Nc2ccccc2O)c2nonc12`, the figure is > 11 µM (inactive).
With `O=C(NC1CC1)C1Nc2ccc(OC(F)(F)F)cc2C2C=CCC12` (stereo not drawn), the EC50 is > 11 µM (inactive).
